Results on 1 molecule are retold here after patent US7432300B2, “Gossypol co-crystals and the use thereof” (The Regents of the University of Michigan, priority 2004, dated 2008).

This data set is classed as physicochemical. On the procedure: (−)-Gossypol acetic acid co-crystals were yellow or pale yellow and needle shaped. […] The co-crystals were insoluble in water. The uncorrected melting point of the co-crystals was determined to be 178-180° C. using a Mel-Temp apparatus.

For `Cc1cc2c(C(C)C)c(O)c(O)c(C=O)c2c(O)c1-c1c(C)cc2c(C(C)C)c(O)c(O)c(C=O)c2c1O` [(−)-Gossypol acetic acid co-crystals, (−)-gossypol acetic acid], the solubility in acetone entry is “readily soluble”, the solubility in chloroform entry is given as “slightly soluble”, the solubility in ethanol result is “slightly soluble” and the solubility in ether entry is listed as “readily soluble”. For the same molecule, the solubility in petroleum entry is “sparsely soluble” and the solubility in water entry is “insoluble”.
